Test results: BigSolDB 2.1

N#Cc1cccc([N+](=O)[O-])c1
solubility (mole fraction)
Conditions	278.15 K	283.15 K	288.15 K	293.15 K	298.15 K	303.15 K	308.15 K	313.15 K	318.15 K
in acetic acid	–	–	–	0.0354	0.04	0.0459	0.0525	0.0608	0.0713
in acetone	0.0789	0.0905	0.106	0.123	0.142	0.164	0.187	0.213	0.242
in acetonitrile	0.0473	0.0565	0.0682	0.0814	0.0973	0.116	0.138	0.164	0.196
in cyclohexane	–	0.000365	0.000472	0.000599	0.000768	0.00097	0.00121	0.00153	0.00193
in ethanol	0.00312	0.0038	0.00473	0.00582	0.00715	0.00873	0.0106	0.013	0.0159
in ethyl acetate	0.0353	0.044	0.0565	0.0706	0.0876	0.109	0.135	0.166	0.203
in isobutanol	0.00162	0.00207	0.00265	0.0033	0.00409	0.00504	0.00624	0.00773	0.00959
in isopropanol	0.0017	0.00215	0.00274	0.0035	0.00446	0.00565	0.00711	0.00905	0.0114
in methanol	0.0041	0.00501	0.00622	0.0076	0.00926	0.0112	0.0134	0.0162	0.0195
in n-butanol	0.00233	0.00286	0.00349	0.00428	0.00538	0.00683	0.00848	0.0104	0.0129
in n-propanol	0.0025	0.00308	0.0038	0.00475	0.00592	0.0073	0.00897	0.0111	0.0135
in toluene	0.0259	0.0304	0.0374	0.0458	0.0557	0.067	0.0813	0.0982	0.119
